Molecules are shown by their SMILES. Numbers after ± are expanded uncertainties.

The nature of data set [1]: refractive index (Na D-line) (dimensionless). Particulars: 298.1 K, 101.33 kPa, Liquid.
For data set [2] the following is noted: 101.33 kPa, Liquid; for mass density: 298.1 K; for viscosity: 298.15 K.
[3] abbreviates: Capillary tube (Ostwald / Ubbelohde) method.

For orientation: refractive index means the speed of light in vacuum divided by its phase velocity in the sample. A word on the mass density: it is the mass of a sample divided by its volume. Regarding `CC(C)CC(C)(C)C` [2,2,4-trimethylpentane], the refractive index in data set [1] (Standard Abbe refractometry) amounted to 1.38921 ± 0.00041. Also, in data set [2] (Vibrating tube method), the mass density stood at 687.84 ± 0.23 kg/m3.
What is called viscosity is the internal friction of a fluid under shear. On to `CCCCCCCCn1cc[n+](C)c1.O=S(=O)([N-]S(=O)(=O)C(F)(F)F)C(F)(F)F`, for which the refractive index in data set [1] was found to be 1.4327 ± 0.00089. In addition, in data set [2], the mass density is listed as 1319.78 ± 4.3 kg/m3 and the viscosity turned out to be 90.37 ± 4.8 mPa·s.
For the molecule `Cc1ccccc1` [toluene], the refractive index in data set [1] (Standard Abbe refractometry) stood at 1.49393 ± 0.00041. Besides, in data set [2] (Vibrating tube method), the mass density is 862.2 ± 0.16 kg/m3. Also, the viscosity in data set [2] (setting [3]) was found to be 0.577 ± 0.007 mPa·s.
The like results for `c1ccsc1` [thiophene] were, in that order, 1.5253 ± 0.00041, 1058.59 ± 0.14 kg/m3 and 0.612 ± 0.007 mPa·s.
